Source: patent publication US20080089860A1, “Therapeutic compositions and methods useful in treating cancer” (priority 2006, published 2008)

Tests used:
NB4 cells = assay: NB4 cell cycle analysis and Annexin V/propidium iodide assay; assay type: cell-based, human
Method: […] Briefly, the cells were fixed in cold ethanol and incubated for 30 minutes at 4° C. in the dark with a solution of […], 1 mg/ml RNase and 0.1% NP-40. Analysis was performed immediately after staining using the CELLFIT program (Becton Dickinson, Mountain View, Calif.).
] Annexin V staining of exposed membrane phospholipid phosphatidylserine (PS) was done using the Annexin V assay kit (Pharmingen, San Diego, Calif.). Briefly, NB4 cells were cultured in the 10% FCS RPMI 1640 medium in the absence or presence of sodium stibogluconate (250 µg/ml) or ATRA (1 µM) for 3 days. Cells were then washed in PBS twice and stained in binding buffer (10 mM Hepes, pH 7.4; 140 mM NaCl; 2.5 mM CaCl2) containing Annexin V-FITC and propidium iodide for 15 min. The reaction was stopped by adding 10 volumes of binding buffer and analyzed by FACS (Becton Dickinson Facsvantage).

WM35 cells = assay: WM35 melanoma cell growth; assay type: cell-based, human
Method: For cell proliferation assays, cells were grown in 10% FCS culture medium containing various amounts of IFNs and/or sodium stibogluconate in 96 well plates and cultured at 37° C. for 3 or 6 days as indicated. The numbers of viable cells in proliferation assays were determined by MTT assays as described in Phatak et al., J. Immunol. 167, 3391 (2001).

[1] = system: tumor-infiltrating and spleen macrophages (F4/80+), T and NK cells; assay: Immunohistochemistry of Renca tumors and spleen, Balb/c mice; settings: mouse, in vivo
Method: Major internal organs and Renca tumors harvested from mice were fixed in 10% formalin or snap frozen in liquid nitrogen. H & E-stained tissue sections of the fixed samples were prepared and evaluated by microscopy as described previously (Yi, T., M. K. Pathak, D. J. Lindner, M. E. Ketterer, C. Farver, and E. C. Borden. 2002. Anticancer activity of sodium stibogluconate in synergy with IFNs. J Immunol 169:5978). Preparation of frozen tissue sections and immunohistochemistry were performed following established procedures (Joliat, M. J., P. A. Lang, B. L. Lyons, L. Burzenski, M. A. Lynes, T. Yi, J. P. Sundberg, and L. D.
The sections were counterstained with Mayer's hematoxylin prior to microscopic examination. Tissue sections of 2 mice/group were evaluated. The number of immune cells was semi-quantified based on the following scheme: +, 0-1 positive cells/40×field; +, 2-5 positive cells/40×field; ++, 6-10 positive cells/40×field, etc.

PRL-1 = biological target: T1, PRL-1 (Homo sapiens, UniProt Q93096); assay: In vitro PTPase assay, recombinant PRL-1; assay type: biochemical; settings: 0.1-100 μg/ml
T1 construct: made in house; host or cells: E. coli DH5a
Source text: (§1) Sodium stibogluconate, suramin, sodium orthovanadate and GST fusion protein of SHP-1 have been described previously (Pathak et al., J. Imumol. 167, 3391 (2001)). Meglumine antimonate was obtained from Aventis. cDNAs of human PRL-1, PRL-2 and PRL-3 coding region were derived by RT-PCR from H9 cells (Safai, et al., Lancet 1, 1438 (1984)) and inserted in frame into the pGEX vector. cDNA of PRL-1R86 was generated by recombinant DNA technique using PRL-1 cDNA as template following established procedures (Jiao, et al., Mol. Cell. Biol. 16, 6985 (1996)). […]
(§2) In vitro PTPase assays were used to determine the effects of compounds on recombinant PTPases, following established procedures using a synthetic phosphotyrosine peptide or DiFMUP as the substrate (Pathak et al., J. Imumol. 167, 3391 (2001)). […] PTPase activity of individual reactions was measured by adding 100 µL of malachite green solution (UBI) and then quantifying the amounts of free phosphate cleaved by the PTPase from the peptide substrate by spectrometry (OD660 nm). […] Relative PTPase activities were calculated based on the formula: (PTPase activity in the presence of an inhibitory compound/PTPase activity in the absence of the compound)× 100%. […]

PRL-2 = biological target: T2, PRL-2 (Homo sapiens, UniProt Q12974); assay: In vitro PTPase assay, recombinant PRL-2; assay type: biochemical
T2 construct: made in house; host or cells: E. coli DH5a
Source text: as §1, §2

GSTm8 = assay: In vitro PTPase assay, GSTm8; assay type: biochemical; settings: 3-4 μg/ml or 10-100 μg/ml
Source text: In vitro PTPase assays were used to determine the effects of levamisole (Sigma), pentamidine (American Pharmaceutical Partners, Inc.), and ketoconazole (Sigma) on recombinant PTPases, following established procedures (Pathak et al., J. Imumol. 167, 3391 (2001); Pathak et al., Leukemia 16, 2285 (2002), Yi et al., J. Immunol. 169, 5978 (2002)) using a synthetic phosphotyrosine peptide or DiFMUP as the substrate as detailed above in section I.A.2.

T2 sequence (Q12974 whole entry): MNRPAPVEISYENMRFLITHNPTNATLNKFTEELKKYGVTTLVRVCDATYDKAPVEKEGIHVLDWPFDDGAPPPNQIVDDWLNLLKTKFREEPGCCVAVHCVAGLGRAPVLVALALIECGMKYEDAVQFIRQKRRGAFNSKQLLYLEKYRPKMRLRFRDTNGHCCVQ
T1 sequence (Q93096 whole entry): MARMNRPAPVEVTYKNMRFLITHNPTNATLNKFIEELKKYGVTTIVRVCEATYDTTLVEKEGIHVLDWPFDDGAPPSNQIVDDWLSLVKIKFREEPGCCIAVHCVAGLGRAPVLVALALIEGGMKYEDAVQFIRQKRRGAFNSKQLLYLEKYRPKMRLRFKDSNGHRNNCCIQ

Row | Compound | Annexin V staining of NB4 cells (NB4 cells; 250 μg/ml for 6 days) | cell cycle distribution of NB4 cells (NB4 cells; 3 days, sodium stibogluconate 250 μg/ml, ATRA 1 μM) | effect on WM35 melanoma cell line (WM35 cells) | numbers of tumor-infiltrating T cells or NK cells [1] | PRL-1 activity retained (PRL-1) | effectiveness against PRL-2 (PRL-2) | inhibitory activity against GSTm8 (GSTm8)
1 | O.O.O.O.O.O.O.O.O.O=C([O-])[C@@H]1[O][Sb]2([O-])([O][Sb]34([OH])[O][C@H]([C@H](O)CO)[C@H]([O]3)[C@H](C(=O)[O-])[O]4)[O][C@H]([C@H](O)CO)[C@@H]1[O]2.[Na+].[Na+].[Na+] [sodium stibogluconate] | stained positive by Annexin V | significant increase of cells at S phase | minimally affected | little effect |  |  | 
2 | N=C(N)c1ccc(OCCCCCOc2ccc(C(=N)N)cc2)cc1 [pentamidine] |  |  |  |  | 70-80% | not effective | no obvious inhibitory activity
3 | CC(=O)N1CCN(c2ccc(OCC3COC(Cn4ccnc4)(c4ccc(Cl)cc4Cl)O3)cc2)CC1 (stereo not shown) [ketoconazole] |  |  |  |  | 60-70% | not effective | no obvious inhibitory activity
